Reference: US20250186463A1, “ABIRATERONE DECANOATE PRODRUGS AND USE IN THERAPY” (PROPELLA THERAPEUTICS, INC., priority 2022, published 2025)

Test system: serum testosterone
Experiment: Phase 1/2a open-label study of i.m. abiraterone decanoate depot in advanced prostate cancer: serum testosterone
Type: in vivo, human
Conditions: for serum testosterone reduction from baseline: day 168
Experimental: This is a Phase 1/2a, Open-label, Multicenter Study of Intramuscular Abiraterone Decanoate Depot in Patients with Advanced Prostate Cancer.
Formulations and dosing regimen: The formulation used in the study (abiraterone decanoate for intramuscular [i.m.] injection) is a solution formulation of abiraterone decanoate at a concentration of 180 mg/mL and will be provided as a 10 mL vial containing 990 mg of abiraterone decanoate in 5.5 mL of solution. See further details of the formulations in Example 2 (for each milliliter: Abiraterone Decanoate, about 180 mg/mL; Benzyl Alcohol, about 100 mg/mL; Benzyl Benzoate, about 200 mg/mL; and Corn oil, q.s. to 1 mL). Abiraterone Decanoate will be administered as an i.m. injection every 84 days (±3 days). Dose escalation will proceed with a modified Fibonacci sequence. Based on emerging data, intermediate doses may be evaluated.
Study Design: This is a Phase 1/2a, Open-label, Multicenter Study of Intramuscular Abiraterone Decanoate Depot in Patients with Advanced Prostate Cancer. In Phase 1, all patients will receive i.m. Abiraterone Decanoate depot in 84-day treatment cycles combined with daily oral prednisone or dexamethasone. In Phase 2a, patients will be randomized 1:1 and treated with i.m. Abiraterone Decanoate depot in 84-day treatment cycles in combination with dexamethasone (Arm A) or abiraterone acetate daily+prednisone (Arm B). In both Phases, patients will undergo scheduled periodic assessments of serum testosterone levels. Participants may continue treatment until they meet any discontinuation criteria outlined in the protocol.
Phase 1—Dose Escalation: Eligible patients with metastatic castration-sensitive prostate cancer (mCSPC) and patients with metastatic castration-resistant prostate cancer (mCRPC) will be enrolled. The initial dose of Abiraterone Decanoate to be administered is based on findings from completed non-human primate toxicology and pharmacology studies; dose escalation will proceed in a modified Fibonacci sequence. A Safety Review Committee (SRC) will be established to review available cohort safety data, and pharmacokinetic and pharmacodynamic findings (particularly testosterone suppression) to recommend a decision on dose escalation including whether intermediate doses should be explored.
Pharmacodynamic Analysis: Determination of Prostate Specific Antigen (PSA), serum testosterone, dehydroepiandrosterone (DHEA), dehydroepiandrosterone sulfate (DHEA-S), androstenedione, dihydrotestosterone (DHT), progesterone, cortisol, adrenocorticotropic hormone (ACTH), corticosterone, 11-dexoycorticosterone (11-DOC) and 11-deoxycortisol.
Based on the available data, the recommended dose for Phase 2 is about 1260 mg abiraterone decanoate once every three months (12 weeks). All cohorts 1 and 2 in this clinical study were treated with prednisone, 5 mg orally once or twice daily; and all cohorts 3-5 were treated with dexamethasone, 0.5 mg orally once daily. The results shown herein for these cohorts should be understood accordingly.
The median baseline T level, calculated from mean of screening and Day 1 of Cycle 1 pre-dose samples, was 7.45 ng/dL.

CCCCCCCCCC(=O)O[C@H]1CC[C@@]2(C)C(=CC[C@@H]3[C@@H]2CC[C@]2(C)C(c4cccnc4)=CC[C@@H]32)C1 [abiraterone decanoate]
Serum Testosterone (% CFB) (Cohort 1, 180 mg i.m., Study Day 1 (baseline)): 0% | Serum Testosterone (% CFB) (Cohort 1, 180 mg i.m., Study Day 2): −33% | Serum Testosterone (% CFB) (Cohort 1, 180 mg i.m., Study Day 3): −42% | Serum Testosterone (% CFB) (Cohort 1, 180 mg i.m., Study Day 5): −48% | Serum Testosterone (% CFB) (Cohort 1, 180 mg i.m., Study Day 7): −52% | Serum Testosterone (% CFB) (Cohort 1, 180 mg i.m., Study Day 10): −61% | Serum Testosterone (% CFB) (Cohort 1, 180 mg i.m., Study Day 14): −67% | Serum Testosterone (% CFB) (Cohort 1, 180 mg i.m., Study Day 21): −71% | Serum Testosterone (% CFB) (Cohort 1, 180 mg i.m., Study Day 28): −73% | Serum Testosterone (% CFB) (Cohort 1, 180 mg i.m., Study Day 42): −65% | Serum Testosterone (% CFB) (Cohort 1, 180 mg i.m., Study Day 56): −55% | Serum Testosterone (% CFB) (Cohort 1, 180 mg i.m., Study Day 70): −47% | Serum Testosterone (% CFB) (Cohort 2, 360 mg i.m., Study Day 1 (baseline)): 0% | Serum Testosterone (% CFB) (Cohort 2, 360 mg i.m., Study Day 2): −11% | Serum Testosterone (% CFB) (Cohort 2, 360 mg i.m., Study Day 3): 0% | Serum Testosterone (% CFB) (Cohort 2, 360 mg i.m., Study Day 5): −28% | Serum Testosterone (% CFB) (Cohort 2, 360 mg i.m., Study Day 7): −49% | Serum Testosterone (% CFB) (Cohort 2, 360 mg i.m., Study Day 10): −51% | Serum Testosterone (% CFB) (Cohort 2, 360 mg i.m., Study Day 14): −67% | Serum Testosterone (% CFB) (Cohort 2, 360 mg i.m., Study Day 21): −72% | Serum Testosterone (% CFB) (Cohort 2, 360 mg i.m., Study Day 28): −71% | Serum Testosterone (% CFB) (Cohort 2, 360 mg i.m., Study Day 42): −64% | Serum Testosterone (% CFB) (Cohort 2, 360 mg i.m., Study Day 56): −60% | Serum Testosterone (% CFB) (Cohort 2, 360 mg i.m., Study Day 70): −56% | Serum Testosterone (% CFB) (Cohort 2, 360 mg i.m., Study Day 77): −56% | Serum Testosterone (% CFB) (Cohort 2, 360 mg i.m., Study Day 84): −49% | Serum Testosterone (% CFB) (Cohort 2, 360 mg i.m., Study Day 112): −79% | Serum Testosterone (% CFB) (Cohort 2, 360 mg i.m., Study Day 140): −63% | Serum Testosterone (% CFB) (Cohort 2, 360 mg i.m., Study Day 168): −32% | Serum Testosterone (% CFB) (Cohort 2, 360 mg i.m., Study Day 196): −56% | Serum Testosterone (% CFB) (Cohort 3, 720 mg i.m., Study Day 1 (baseline)): 0% | Serum Testosterone (% CFB) (Cohort 3, 720 mg i.m., Study Day 2): −41% | Serum Testosterone (% CFB) (Cohort 3, 720 mg i.m., Study Day 3): −50% | Serum Testosterone (% CFB) (Cohort 3, 720 mg i.m., Study Day 5): −48% | Serum Testosterone (% CFB) (Cohort 3, 720 mg i.m., Study Day 7): −65% | Serum Testosterone (% CFB) (Cohort 3, 720 mg i.m., Study Day 10): −74% | Serum Testosterone (% CFB) (Cohort 3, 720 mg i.m., Study Day 14): −82% | Serum Testosterone (% CFB) (Cohort 3, 720 mg i.m., Study Day 21): −87% | Serum Testosterone (% CFB) (Cohort 3, 720 mg i.m., Study Day 28): −85% | Serum Testosterone (% CFB) (Cohort 3, 720 mg i.m., Study Day 42): −81% | Serum Testosterone (% CFB) (Cohort 3, 720 mg i.m., Study Day 56): −83% | Serum Testosterone (% CFB) (Cohort 3, 720 mg i.m., Study Day 70): −81% | Serum Testosterone (% CFB) (Cohort 3, 720 mg i.m., Study Day 77): −80% | Serum Testosterone (% CFB) (Cohort 3, 720 mg i.m., Study Day 84): −76% | Serum Testosterone (% CFB) (Cohort 3, 720 mg i.m., Study Day 112): −94% | Serum Testosterone (% CFB) (Cohort 3, 720 mg i.m., Study Day 140): −88% | Serum Testosterone (% CFB) (Cohort 3, 720 mg i.m., Study Day 168): −80% | Serum Testosterone (% CFB) (Cohort 3, 720 mg i.m., Study Day 196): −93% | Serum Testosterone (% CFB) (Cohort 4, 1260 mg i.m., Study Day 1 (baseline)): 0% | Serum Testosterone (% CFB) (Cohort 4, 1260 mg i.m., Study Day 2): −51% | Serum Testosterone (% CFB) (Cohort 4, 1260 mg i.m., Study Day 3): −65% | Serum Testosterone (% CFB) (Cohort 4, 1260 mg i.m., Study Day 5): −69% | Serum Testosterone (% CFB) (Cohort 4, 1260 mg i.m., Study Day 7): −79% | Serum Testosterone (% CFB) (Cohort 4, 1260 mg i.m., Study Day 10): −79% | Serum Testosterone (% CFB) (Cohort 4, 1260 mg i.m., Study Day 14): −80% | Serum Testosterone (% CFB) (Cohort 4, 1260 mg i.m., Study Day 21): −88% | Serum Testosterone (% CFB) (Cohort 4, 1260 mg i.m., Study Day 28): −89% | Serum Testosterone (% CFB) (Cohort 4, 1260 mg i.m., Study Day 42): −90% | Serum Testosterone (% CFB) (Cohort 4, 1260 mg i.m., Study Day 56): −89% | Serum Testosterone (% CFB) (Cohort 4, 1260 mg i.m., Study Day 70): −80% | Serum Testosterone (% CFB) (Cohort 4, 1260 mg i.m., Study Day 77): −87% | Serum Testosterone (% CFB) (Cohort 4, 1260 mg i.m., Study Day 84): −83% | Serum Testosterone (% CFB) (Cohort 4, 1260 mg i.m., Study Day 112): −93% | Serum Testosterone (% CFB) (Cohort 4, 1260 mg i.m., Study Day 140): −89% | Serum Testosterone (% CFB) (Cohort 4, 1260 mg i.m., Study Day 168): −86% | Serum Testosterone (% CFB) (Cohort 4, 1260 mg i.m., Study Day 196): −97% | Serum Testosterone (% CFB) (Cohort 5, 1800 mg i.m., Study Day 1 (baseline)): 0% | Serum Testosterone (% CFB) (Cohort 5, 1800 mg i.m., Study Day 2): −41% | Serum Testosterone (% CFB) (Cohort 5, 1800 mg i.m., Study Day 3): −46% | Serum Testosterone (% CFB) (Cohort 5, 1800 mg i.m., Study Day 5): −62% | Serum Testosterone (% CFB) (Cohort 5, 1800 mg i.m., Study Day 7): −76% | Serum Testosterone (% CFB) (Cohort 5, 1800 mg i.m., Study Day 10): −79% | Serum Testosterone (% CFB) (Cohort 5, 1800 mg i.m., Study Day 14): −85% | Serum Testosterone (% CFB) (Cohort 5, 1800 mg i.m., Study Day 21): −88% | Serum Testosterone (% CFB) (Cohort 5, 1800 mg i.m., Study Day 28): −88% | Serum Testosterone (% CFB) (Cohort 5, 1800 mg i.m., Study Day 42): −93% | Serum Testosterone (% CFB) (Cohort 5, 1800 mg i.m., Study Day 56): −79% | Serum Testosterone (% CFB) (Cohort 5, 1800 mg i.m., Study Day 70): −87% | Serum Testosterone (% CFB) (Cohort 5, 1800 mg i.m., Study Day 77): −88% | Serum Testosterone (% CFB) (Cohort 5, 1800 mg i.m., Study Day 84): −88% | Serum Testosterone (% CFB) (Cohort 5, 1800 mg i.m., Study Day 112): −83% | Serum Testosterone (% CFB) (Cohort 5, 1800 mg i.m., Study Day 140): −96% | Serum Testosterone (% CFB) (Cohort 5, 1800 mg i.m., Study Day 168): −95% | Serum Testosterone (% CFB) (Cohort 5, 1800 mg i.m., Study Day 196): −98% | decline in testosterone (Patient 1, cohort 1, 180 mg, treatment days 21-56): 59-61% | androgen suppression (Patient 2, cohort 2, 360 mg, progressed after Xtandi, FIG. 6): sustained androgen suppression | serum testosterone reduction from baseline (cohort 3 (720 mg)): 80% | serum testosterone reduction from baseline (cohort 4 (1260 mg)): 86% | serum testosterone reduction from baseline (cohort 5 (1800 mg)): up to 95% | patients with a 90% reduction in testosterone levels compared to baseline or values reduced to ≤1 ng/dL (patients dosed at 720 mg and above, day 28): 13 out of 16
